These results are taken from ChEMBL document CHEMBL5338806, “Rationally Designed Nonapeptides with Great Skin Photoprotective Effect through Producing Type 1 Collagen and Blocking the mTOR Pathway” (J Med Chem, 2023).

Calls of active or inactive are those of the source. The rule behind the calls is not given here. Where a SMILES comes first, the peptide text is derived from it.

One assay has as its system HEK293. In words: Activation of COL1a2 transcriptional activity in HEK293 cells by dual-luciferase reporter assay. The format is functional, cell-based. The note with it: Homo sapiens. A general note: Reporter assays use an easily measured gene product as a stand-in for the process of interest.
The nature of assay [1]: Antioxidant activity assessed as ABTS radical scavenging activity at 80 ug/mL incubated for 10 mins by absorbance based assay. The format is functional. The note with it: dose 80.0 µg/ml.
Assay [2] in a line: Antioxidant activity assessed as ROS scavenging activity. The format is functional.
A short description of assay [3]: Antioxidant activity assessed as DPPH radical scavenging activity by measuring eradication rate at 80 ug/mL incubated for 30 mins by absorbance based assay relative to control. The format is functional. The following applies: dose 80.0 µg/ml.
Another assay has as its system Mus musculus. Kind of assay: Protection against UV radiation-stress induced skin damage in Kunming mouse model assessed as repair of broken skin at 20 ug/ml administered topically and measured every 2 days for 10 days. The class given is functional, organism-based. The following applies: dose 20.0 µg/ml, route top, time 10.0 day.

On to `CC(C)C[C@H](NC(=O)[C@H](Cc1c[nH]c2ccccc12)NC(=O)[C@@H]1CCCN1C(=O)[C@@H]1CCCN1C(=O)[C@H](CC(C)C)NC(=O)[C@@H](N)CC(C)C)C(=O)N[C@@H](CCCNC(=N)N)C(=O)N1CCC[C@H]1C(=O)N[C@@H](CCCCN)C(=O)N[C@@H](CS)C(=O)N[C@@H](CO)C(=O)O` (H-LLPPWLRPKCS-OH), for which the outcome in the assay with HEK293 was Active.
As to `CC(C)C[C@H](NC(=O)[C@@H](N)C(C)C)C(=O)N[C@@H](CCCCN)C(=O)N[C@@H](CCCCN)C(=O)N[C@@H](CS)C(=O)O` (H-VLKKC-OH), the outcome (in the assay with HEK293; in assay [1]; in assay [2]; in the assay with Mus musculus) was Active. The Activity in assay [3] is 96.8%.
Turning to `CC(C)C[C@H](NC(=O)[C@@H](N)C(C)C)C(=O)N1CCC[C@H]1C(=O)N[C@@H](CCCCN)C(=O)N[C@@H](CS)C(=O)N[C@@H](Cc1c[nH]c2ccccc12)C(=O)O` (H-VLPKCW-OH), in assay [2], the result was Active.
For `CC(C)C[C@H](NC(=O)[C@H](CCCCN)NC(=O)[C@@H]1CCCN1C(=O)[C@H](CC(C)C)NC(=O)[C@@H](N)C(C)C)C(=O)N[C@@H](CCC(=O)O)C(=O)N[C@@H](CS)C(=O)N[C@H](C(=O)N[C@@H](Cc1c[nH]c2ccccc12)C(=O)O)C(C)C` (H-VLPKLECVW-OH), in the assay on HEK293, the result was Active.
